Measured values as given in patent US6696407B1, “Huntington's disease treatment comprising administering aldose reductase inhibitors to increase striatal CNTF” (The Regents of the University of California, priority 1997, dated 2004).
Marks after values point to notes of the source that are not given here.

How the values were obtained:
Format in all cases: in vivo, rat
[1] = Sciatic nerve water content; details: for Water: sciatic nerve, Ponalrestat 50 mg/kg daily oral, two months
Experimental: These studies were conducted with the approval of the San Diego Veterans Administration Animal Studies Subcommittee. Female Sprague-Dawley rats (240-300 g; Charles River, San Diego, Calif.) were housed in cages with wire bottoms to reduce contact with urine and feces. Groups were established and fed either a 40% D-galactose diet or a control diet specially formulated by Purina that contained 40% solka floc, a nonnutritive fiber, to balance nutritional intake. All diets contained 100% of the micronutrients required by rats and, with water, were available ad libitum. Each of these diet groups contained animals that were treated with the ARI, Ponalrestat (50 mg/kg), daily by oral gavage. After two months, rats were anesthetized by intraperitoneal injection (1 ml/kg ip) of pentobarbital sodium (12.5 mg/ml) and diazepam (1.25 mg/ml) in bacteriostatic saline. Under deep anesthesia, motor nerve conduction velocity (MNCV) was measured in the left hindlimb prior to removal of the sciatic nerve. […]
For determination of water content and dry weight, distal segments of sciatic nerve were lightly blotted, weighed prior to freeze-drying and reweighed. Nerve polyols were measured by gas chromatography with α-methylmannoside as an internal standard (Mizisin et al., (1993) J. Neurol. Sci. 116:67-72) using a Hewlett Packard 5890 gas chromatograph (Hewlett Packard, Avondale, Pa.) fitted with a flame ionization detector and a 25 m×0.2 mm capillary column (Hewlett Packard Ultra 1). Nerve water and polyol contents are expressed as mg and nmol per mg nerve dry weight, respectively.
The effect of two months of galactose feeding and ARI treatment on body weight, nerve water and polyol content, and MNCV is shown in Table 1. Data are presented as mean ±SD (N=8 to 10) and were analyzed with a one way ANOVA after which multiple comparisons were made with the Student-Newman-Keuls test. […] ARI-treated animals received a daily oral gavage (50 mg/kg) of Ponalrestat (ND—Not detected).

CNTF = experiment: CNTF-like bioactivity of sciatic nerve homogenates (24 hour survival of E8CG neurons)
Experimental: (§1) These studies were conducted with the approval of the San Diego Veterans Administration Animal Studies Subcommittee. Female Sprague-Dawley rats (240-300 g; Charles River, San Diego, Calif.) were housed in cages with wire bottoms to reduce contact with urine and feces. Groups were established and fed either a 40% D-galactose diet or a control diet specially formulated by Purina that contained 40% solka floc, a nonnutritive fiber, to balance nutritional intake. All diets contained 100% of the micronutrients required by rats and, with water, were available ad libitum. Each of these diet groups contained animals that were treated with the ARI, Ponalrestat (50 mg/kg), daily by oral gavage. After two months, rats were anesthetized by intraperitoneal injection (1 ml/kg ip) of pentobarbital sodium (12.5 mg/ml) and diazepam (1.25 mg/ml) in bacteriostatic saline. Under deep anesthesia, motor nerve conduction velocity (MNCV) was measured in the left hindlimb prior to removal of the sciatic nerve. The proximal portion was processed for subsequent light microscopic examination and the distal portion used for gas chromatographic analysis of nerve polyols. The contralateral sciatic nerve was removed and used for assay of CNTF-like neurotrophic activity and either Northern blot or ELISA analysis of CNTF mRNA or protein, respectively.
Bioassays were performed on extracts of sciatic nerve as described previously by Calcutt et al. (1992) Brain Res. 575:320-324. Briefly, 4 mm segments were homogenized in cold Hank's balanced salt solution, centrifuged and the soluble supernatant aspirated. An aliquot of the supernatant was used to determine the amount of protein using the Bradford assay. The remaining supernatant was used to assay CNTF-like activity by the ability to support the 24 hour survival of day eight embryonic chick ciliary ganglia (E8CG) neurons. E8CG neurons were obtained from chick ciliary ganglia after trypsin treatment and trituration in Dulbecco's Modified Eagle's Medium plus 10% fetal calf serum (DMEM+10% FCS). After seeding onto a tissue culture dish for 2.5 hours to allow attachment of nonneuronal cells, unattached neurons were collected, counted and added to 96-well microtiter plates (500 neurons/well) precoated with polyornithine and laminin. Nerve homogenates were serially diluted in DMEM+10% FCS, added to the microtiter plates and incubated for 24 hours. A dose-response curve using rat recombinant CNTF was used as a standard and to establish the maximum CNTF effect for each assay. […] Cells were then fixed and the number of surviving, intact, blue-staining cells counted using phase contrast microscopy. […]

myelinated fibers = experiment: Axonal size-frequency distribution of myelinated fibers in sciatic nerve; details: galactose-fed rats
Experimental: as §1
For light microscopic examination, proximal portions of sciatic nerve were fixed in 2.5% phosphate-buffered glutaraldehyde (490 mosmol/kg H2O). Tissue was then postfixed in 1% aqueous osmium tetroxide for 3 to 4 hours before dehydration using a series of graded alcohols and propylene oxide. […]
In each animal, computer-assisted analysis of the axonal size-frequency distributions of myelinated fibers was performed on a single thick section sampled from the tibial fascicle midway between the sciatic notch and popliteal fossa as described in detail previously by Forcier et al. (1991) J. Neuropathol. […] Briefly, video images (Cohu, San Diego, Calif.) of the tibial fascicle obtained with an Olympus light microscope were analyzed using a VAXstation II/GPX processor (Digital Equipment Corp., Boston, Mass.) with data translation imaging hardware (DT 2651, Data Translation, Marlboro, Mass.) for digitization of single video frames and an image processing board (DT2658) for mathematical operations. […]
Two months of galactose feeding was associated with a shift in the axonal size-frequency distribution of myelinated fibers towards those with smaller diameter axons (FIG. 4). […] Data are presented as the mean ±SD (N=8 to 10 per group) and were analyzed with a one way ANOVA after which multiple comparisons were made with the Student-Newman-Keuls test. […]

O=C(O)Cc1nn(Cc2ccc(Br)cc2F)c(=O)c2ccccc12 [Ponalrestat, 3-(4-bromo-2-fluorobenzyl)-4-oxo-3H-phthalazin-1-ylacetic acid]
Nerve water content (in words) ([1]; galactose-fed rats): restored | Water ([1]; 40% D-galactose diet rats): 1.8 ± 0.3^a mg/mg dry wt | Water ([1]; control diet rats): 1.8 ± 0.1^a mg/mg dry wt | Increase of CNTF associated activity compared to normal rats that did not receive any ARI (CNTF; normal rats, survival of embryonic chick ciliary ganglia neurons): two and one-half fold increase | Increase of CNTF-like bioactivity (TU/ml) compared to untreated control animals (CNTF; sciatic nerve, control diet rats, 50 mg/kg daily oral, two months): ~250% | CNTF-like bioactivity relative to control levels (CNTF; sciatic nerve, galactose-fed rats with ARI): not restored to control levels | Increase of CNTF-like bioactivity (TU/ml) compared to the untreated galactose group (CNTF; sciatic nerve, galactose-fed rats, 50 mg/kg daily oral, two months, P<0.05): 60% | Relative number, Medium myelinated axons (myelinated fibers; diameter >3 μm but <7 μm, Ponalrestat 50 mg/kg daily oral, two months): 45.2 ± 5.0^a % | Relative number, Small myelinated axons (myelinated fibers; diameter ≦3 μm, Ponalrestat 50 mg/kg daily oral, two months): 17.7 ± 4.9% | Relative number, Large myelinated axons (myelinated fibers; diameter ≧7 μm, Ponalrestat 50 mg/kg daily oral, two months): 37.1 ± 6.7^a % | Changes in axonal caliber (myelinated fibers): prevented
